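Each compound was tested at five concentrations against cells in 96-well plates for 48 hours. TGI is the concentration that stops growth completely.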
Assays:
Experiment in all cases: inhibition of tumour cell growth, NCI panel, 48 h
[1] = system: SK-MEL-2 melanoma
[2] = system: DU-145 prostate
[3] = system: MDA-MB-435
[4] = system: NCI-H23 lung
[5] = system: OVCAR-4 ovarian
[6] = system: SNB-75 CNS
[7] = system: HS 578T breast
[8] = system: EKVX NSCLC
[9] = system: A498 renal
[10] = system: HCT-15 colon
[11] = system: MCF7 breast
[12] = system: SF-295 CNS
[13] = system: UO-31 renal
[14] = system: OVCAR-5 ovarian
[15] = system: RPMI-8226 leukemia
[16] = system: HCT-116 colon
[17] = system: KM12 colon
[18] = system: UACC-257 melanoma
[19] = system: MALME-3M melanoma
[20] = system: M14 melanoma
[21] = system: OVCAR-8 ovarian
[22] = system: ACHN renal
[23] = system: SR leukemia
[24] = system: RXF 393 renal
[25] = system: T-47D breast
[26] = system: K-562 leukemia
[27] = system: SF-268 CNS
[28] = system: COLO 205 colon
[29] = system: PC-3 prostate
[30] = system: TK-10 renal
[31] = system: SK-OV-3 ovarian
[32] = system: 786-0 renal
[33] = system: MOLT-4 leukemia
[34] = system: NCI-H226 lung
[35] = system: LOX IMVI melanoma
[36] = system: SW-620 colon
[37] = system: NCI/ADR-RES ovarian
[38] = system: SNB-19 CNS
[39] = system: NCI-H460 lung
[40] = system: SF-539 CNS
[41] = system: MDA-MB-231 breast
[42] = system: IGROV1 ovarian
[43] = system: A549 NSCLC
[44] = system: U251 CNS
[45] = system: CCRF-CEM leukemia
[46] = system: SK-MEL-28 melanoma
[47] = system: NCI-H522 lung
[48] = system: OVCAR-3 ovarian
[49] = system: MDA-N
[50] = system: HCC-2998 colon
[51] = system: HOP-62 NSCLC
[52] = system: CAKI-1 renal
[53] = system: HL-60(TB) leukemia
[54] = system: SN12C renal
[55] = system: SK-MEL-5 melanoma
[56] = system: HT29 colon
[57] = system: UACC-62 melanoma
[58] = system: HOP-92 NSCLC

`C1CCC(CC2CCC(NC3=NCCO3)CC2)CC1` (centres undefined) showed a TGI [1] of 32.4 µM, a TGI [2] of 94.9 µM and a TGI [3] of 32.3 µM. For the same molecule, the TGI [4] was 36.5 µM, the TGI [5] was 48.2 µM and the TGI [6] was 36.6 µM. It also gave a TGI [7] of 40.6 µM, a TGI [8] of 54.4 µM and a TGI [9] of 53.3 µM. The TGI [10] was 30.1 µM, the TGI [11] was 32.1 µM and the TGI [12] was 36 µM. It also gave a TGI [13] of 35.9 µM, a TGI [14] of 53.6 µM and a TGI [15] of 55.9 µM. For the same molecule, the TGI [16] was 30.6 µM, the TGI [17] was 32.7 µM and the TGI [18] was 30.1 µM. The TGI [19] was 29.7 µM, the TGI [20] was 33.8 µM and the TGI [21] was 30.9 µM. It also gave a TGI [22] of 35.5 µM, a TGI [23] of 52.6 µM and a TGI [24] of 36.6 µM. The TGI [25] was 54.3 µM, the TGI [26] was 32.9 µM and the TGI [27] was 62.1 µM. It also gave a TGI [28] of 28.2 µM, a TGI [29] of 31.7 µM and a TGI [30] of 28.6 µM. The TGI [31] was 38.4 µM, the TGI [32] was 29.2 µM and the TGI [33] was 48.1 µM. It also gave a TGI [34] of 34.3 µM, a TGI [35] of 30.9 µM and a TGI [36] of 41.7 µM. The TGI [37] was 37.3 µM, the TGI [38] was 34.3 µM and the TGI [39] was 37.1 µM. The TGI [40] was 31.1 µM, the TGI [41] was 37.5 µM and the TGI [42] was 37.1 µM. For the same molecule, the TGI [43] was over 100 µM, the TGI [44] was 33.3 µM and the TGI [45] was 61.9 µM. For the same molecule, the TGI [46] was 33.2 µM, the TGI [47] was 41.9 µM and the TGI [48] was 30.6 µM. For the same molecule, the TGI [49] was 35.9 µM, the TGI [50] was 37.1 µM and the TGI [51] was 39.4 µM. The TGI [52] was 50.7 µM, the TGI [53] was 34 µM and the TGI [54] was 42.5 µM. It also gave a TGI [55] of 33.7 µM, a TGI [56] of 17.1 µM and a TGI [57] of 31.1 µM.
With `O=[N+]([O-])C(/C=C(\Cl)[N+](=O)[O-])=C(N1CCOCC1)N1CCOCC1` the TGI [1] was over 100 µM, the TGI [2] was over 100 µM and the TGI [3] was over 100 µM. The TGI [4] was over 100 µM, the TGI [5] was 53.9 µM and the TGI [6] was over 100 µM. For the same molecule, the TGI [7] was over 100 µM, the TGI [8] was over 100 µM and the TGI [9] was 51.5 µM. The TGI [10] was over 100 µM, the TGI [11] was 35.3 µM and the TGI [12] was over 100 µM. For the same molecule, the TGI [13] was 54 µM, the TGI [14] was 57.2 µM and the TGI [15] was 54.6 µM. For the same molecule, the TGI [16] was 62 µM, the TGI [17] was over 100 µM and the TGI [18] was over 100 µM. It also gave a TGI [19] of 70.3 µM, a TGI [20] of over 100 µM and a TGI [21] of over 100 µM. For the same molecule, the TGI [22] was over 100 µM, the TGI [23] was over 100 µM and the TGI [24] was over 100 µM. It also gave a TGI [25] of 52.7 µM, a TGI [26] of 37.6 µM and a TGI [27] of over 100 µM. The TGI [28] was 33.9 µM, the TGI [29] was over 100 µM and the TGI [30] was over 100 µM. For the same molecule, the TGI [31] was over 100 µM, the TGI [32] was 30.7 µM and the TGI [33] was over 100 µM. The TGI [34] was over 100 µM, the TGI [35] was over 100 µM and the TGI [37] was over 100 µM. The TGI [38] was over 100 µM, the TGI [39] was over 100 µM and the TGI [40] was 39.9 µM. For the same molecule, the TGI [41] was 43.7 µM, the TGI [42] was over 100 µM and the TGI [43] was 39.3 µM. For the same molecule, the TGI [44] was 46.7 µM, the TGI [45] was over 100 µM and the TGI [46] was over 100 µM. The TGI [47] was over 100 µM, the TGI [48] was 34.4 µM and the TGI [49] was over 100 µM. The TGI [50] was 43 µM, the TGI [51] was 37.7 µM and the TGI [52] was 61 µM. It also gave a TGI [53] of 36.8 µM, a TGI [54] of over 100 µM and a TGI [55] of over 100 µM. It also gave a TGI [56] of 83.1 µM, a TGI [57] of over 100 µM and a TGI [58] of 76.4 µM.
